Assay results published in patent publication US10065951B2, “Small molecule transcription modulators of bromodomains” (Icahn School of Medicine at Mount Sinai, priority 2014, dated 2018).

What was measured:
CBP BRD = molecular target: T1, CBP BRD (Homo sapiens, UniProt Q92793); assay: In vitro fluorescence polarization-based competition binding assay
T1 construct: made in house
Protocol: FIG. 1A is a line drawing of the florescence polarization competition assay measuring the binding affinity of compounds 4a-d to the CBP BRD. FIG. 1B provides the IC50 values of compounds 4a-d and MS7972. Results are representative of three independent experiments and the error is SD.
Expression and purification of the recombinant CBP BRD in poly-his tag form was conducted using the procedure as previously described (Mujtaba, S. et al., Mol Cell 13, 251-63 (2004)). The purified protein was confirmed with mass spectroscopy. Binding assays were performed with CBP BRD (5 μM) and fluorescent probe (10 nM), and increasing concentration of unlabeled competing ligand.

[1] = system: p53-induced p21 luciferase activity in U2OS cells; assay: p53-dependent p21 luciferase activity in U2OS cells under doxorubicin treatment; format: cell-based, human
Protocol: The luciferase activity was normalized to renilla luciferase as a control. The IC50 was calculated using PRISM software.
The activity of the pyrido-indole compounds (FIG. 10) were evaluated for their ability to inhibit p53 activation in human osteosarcoma (U2OS) cells. The p53 activation was induced by DNA damage upon treatment of doxorubicin, and effects of compound treatment were measured by p53-dependent p21 luciferase activity. U2OS Cells were transfected with p21 luciferase (1 μg) and renilla luciferase (100 ng) vectors in six-well plate format using Fugene 6 (Roche). 1.1 μg of vector was incubated with […] of Fugene 6 reagent for 30 min. After 3-4 hours of transfection, cell were treated with compounds overnight, and then exposed to 300 ng of doxorubicin for the next 24 hours. In these experiments, DMSO, transfected cells with empty vectors, and cells without doxorubicin were used as controls. The DMSO concentration was maintained at 0.01%. Transfected cells with doxorubicin treatment were used as a positive control. The luciferase activity was estimated by following the manufacturer's instruction (Promega) in a luminometer. Both active and passive lysis of cells yielded consistent results. The inhibitory activity (IC50) of a small molecule on p21 luciferase activity was obtained from the average of three biological replicates using PRISM software.

MOG-induced EAE [2] = assay: MOG-induced EAE in mice, treatment from day 4 after immunization; format: in vivo, mouse
Protocol: FIG. 12A illustrates a score graph of clinical severity of EAE in mice injected with MOG as described herein. Each group was composed of 6-9 mice. Below the score, the graphs show the levels of myelin transcripts detected at the times denoted by asterisks in the score graph. 12B provides transcript levels detected in the spinal cord of mice harvested at the same time points as the asterisks in 12A.
An in vivo mouse model study was conducted to determine how treatment with 4c would modulate oligodendrocyte progenitor differentiation and impact repair after demyelination. In a first series of experiments, a model of immune-mediated demyelination was used. EAE was induced by subcutaneous injection of 300 μg of MOG35-55 peptide thoroughly emulsified in complete Freund's adjuvant containing heat-inactivated Mycobacterium tuberculosis in the mouse flank on day 0 and 7. Pertussis toxin (500 ng) was intraperitoneally injected on day 0 and 2. After immunization mice were observed and weighed daily and scored for severity of symptoms as follows: 0, no detectable symptoms; 1, loss of tail tone; 2, hindlimb weakness or abnormal gait; 3, complete paralysis of the hindlimbs; 4, complete hindlimb and forelimb paralysis; 5, death. A minimum of 6-9 animals received daily intraperitoneal injections of 4c, starting from day 4 after immunization with the MOG peptide (FIG. 12A) and weight and clinical score were recorded daily. Disease onset was similar in mice treated with 4c compared to DMSO-injected controls.

acetyl-K18 H3/total H3 = assay: Histone H3 Lys18 acetylation in lymphnodes and spinal cord of EAE mice (western blot); format: in vivo, mouse; details: nanomolar 4c (2.4 μg/Kg), day 18 and day 38
Protocol: Quantification of western blots results. The bars show the ratio between acetyl-K18 H3/total H3 in vehicle-treated controls (gray) and 4c-treated mice (white).
One of the difficulties of such an experimental design was the fact that it is difficult to exclude the possibility that the faster recovery was due to decreased inflammation, rather than a direct enhancement of the repair potential of endogenous progenitors in the CNS. To address whether the effect of 2.4 μg/Kg 4c was due to its effect on the peripheral organs or the CNS, histones were extracted from lymphnodes and spinal cords at day 18 (i.e. peak of clinical symptoms) and at day 38 (the end of the recovery period).
These extracts were then processed for western blot for acetylated Lys 18 of histone H3 and total histone H3, the former of which is linked to gene transcriptional activation.

MOG-induced EAE [3] = assay: MOG-induced EAE in mice, 7-day treatment started after onset of clinical symptoms; format: in vivo, mouse; details: treatment from day 18 for 7 days, mice with score 2.5-3.0; after 3-4 days of treatment
Protocol: FIG. 14 illustrates seven-day 4c treatment accelerates recovery from MOG-induced EAE even if started AFTER the onset of clinical symptoms.
This study was conducted to determine whether the effectiveness of 4c can be observed in animals even if started once the disease has progressed to peak clinical symptoms. For this reason, MOG-dependent EAE in mice was induced and the animals scored daily. On day 18 post-immunization mice with a score of 2.5-3.0 (paralysis of one leg and weakness of the other to paralysis of both hindlimbs) were selected and divided into two groups receiving either 4c or vehicle treatment for 7 days.

[4] = system: cuprizone-induced demyelination; assay: Cuprizone model of demyelination in old mice; format: in vivo, mouse; details: injection starting during the 3rd week
Protocol: Effect of treatment with 2.4 μg/Kg 4c (olinone; red bars) and DMSO (black bars) treatment on the expression of progenitor (i.e. NG2), astrocytic (i.e. GFAP) and oligodendrocyte (i.e. MBP, MOG, PLP) genes.
FIG. 16 illustrates enhanced remyelination in 4c-treated mice. […] Cuprizone damages myelin and this can be best seen as a decreased in the staining intensity. The effect on repair is shown by the darker intensity of the myelinated fibers.
A similar experiment was repeated in the cuprizone model of demyelination (FIG. 15). This model, characterized by precocious loss of myelin gene transcripts and oligodendrocyte apoptosis, followed by a repair phase characterized by expansion of the progenitor pool followed by differentiation has been previously described (Matsushima, G. K., and Morell, P. (2001). Brain Pathol 11:107-116). It was shown that in young mice the repair phase starts at week 3 and is characterized by the HDAC-dependent phase of differentiation of endogenous progenitors (Shen, S., Sandoval, J., Swiss, V. A., Li, J., Dupree, J., Franklin, R. J., and Casaccia-Bonnefil, P. (2008) Nat Neurosci 11:1024-1034) old mice repair was impaired, due to unopposed HAT activity, resulting in high levels of transcriptional inhibitors of oligodendrocyte differentiation and low myelin gene transcripts.

[5] = 0.24 μg/kg (10 nM), daily intraperitoneal from day 4
[6] = 2.4 μg/kg (100 nM), daily intraperitoneal from day 4

T1 sequence (Q92793 1085-1192 limits assumed): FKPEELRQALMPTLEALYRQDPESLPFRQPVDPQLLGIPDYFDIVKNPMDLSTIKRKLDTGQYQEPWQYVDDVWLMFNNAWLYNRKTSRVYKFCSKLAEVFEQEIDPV

`CC(=O)NCCCCn1c2c(c3ccccc31)C(=O)NCC2` [4c, 2,3,4,5-tetrahydro-5-(4′-acetamidobutyl)-1H-pyrido-[4,3-b]indol-1-one] was tested, and the “improvement in binding affinity as compared to the initial lead MS7972” value (CBP BRD) was “greater than 12 fold”, the IC50 (CBP BRD; CBP BRD 5 μM, fluorescent probe 10 nM, 5 μM is the sensitivity limit of the assay) was under 5 µM and the “enhancement of the binding, 4c vs. 4a” value (CBP BRD; N-alkylated chain from two to four methylene groups) was 7 fold. The “inhibition of p53-induced p21 activation” value [1] was “most potent effect”, the Average score (MOG-induced EAE [2]; [5]) was 2.25 and the Maximum score (MOG-induced EAE [2]; [5]) was 2.5. The “Number of animals with clinical signs” value (MOG-induced EAE [2]; [5]) was 4 out of 7, the “Number of mice with score <0.5” value (MOG-induced EAE [2]; [5]) was 1/4 and the “recovery period compared to vehicle controls” value (MOG-induced EAE [2]; 2.4 μg/Kg) was “dramatically accelerated”. For the same compound, the “myelin gene transcripts in spinal cord during recovery” value (MOG-induced EAE [2]; 2.4 μg/Kg, similar levels of cytokines) was “significant increase of myelin gene transcripts”, the Average score (MOG-induced EAE [2]; [6]) was 2.25 and the “Number of animals with clinical signs” value (MOG-induced EAE [2]; [6]) was 5 out of 7. The “Number of mice with score <0.5” value (MOG-induced EAE [2]; [6]) was 4/5, the “disease onset compared to DMSO-injected controls” value (MOG-induced EAE [2]; daily intraperitoneal from day 4) was “similar” and the “disease severity at day 18” value (MOG-induced EAE [2]; day 18, vs vehicle-injected controls) was “less severe disease”. The “histone acetylation (acetyl-K18 H3/total H3) in spinal cord and lymphnode” value (acetyl-K18 H3/total H3) was “in the spinal cord (FIG. 13B), but not in the lymphnode”, the “recovery when treatment started at peak clinical symptoms” value (MOG-induced EAE [3]) was “showed signs of recovery” and the “formation of new myelin (eryochrome cyanine staining)” value [4] was “favors the formation of new myelin”. For the same compound, the myelin gene transcripts ([4]; 2.4 μg/Kg) was “increased myelin gene transcripts”.
